Values of other authors as cited in patent US20050287205A1, “Dietary supplement compositions” (priority 2004, published 2005).

What was measured:
[1] = with water, ethyl alcohol, and diethyl ether
[2] = system: spontaneously hypertensive rats
[3] = system: liver and skeletal muscle glycogen; settings: acetic acid administration to mammals; promotes recovery from fatigue
renin = settings: spontaneously hypertensive rats

For `CC(=O)O` [acetic acid], the miscibility [1] is given as “miscible (mixable) in all proportions”, the blood pressure [2] is given as “significantly reduces” and the “glycogen repletion in liver and skeletal muscle” value [3] is given as “enhances glycogen repletion in liver and skeletal muscle”. For the same molecule, the renin activity (renin) was “significantly reduces”.
